Source: patent publication US20260001871A1, “TRIAZOLE DERIVATIVES AS MODULATORS OF MAS-RELATED G-PROTEIN RECEPTOR D” (ESCIENT PHARMACEUTICALS, INC., priority 2022, published 2026)

Molecular target: human MRGPRD (Homo sapiens, UniProt Q8TDS7)
Assay: MRGPRD antagonist activity, IP-One HTRF assay in CHO cells stably expressing human MRGPRD (versus 100 μM β-Alanine agonist)
Assay type: cell-based
Description: Chinese Hamster Ovary (CHO) cells stably expressing human MRGPRD (Eurofins, San Diego CA) were plated in a 384-well plate at 20,000 cells per well in 12 μL of Optimem (Fisher Scientific 11-058-021). Plates were kept in the incubator at 37° C. overnight. Antagonists were solubilized at a concentration of 10 mM in DMSO, and the agonists were solubilized to stock concentrations of either 50 mM in H2O (β-Alanine) or 10 mM in DMSO (all others) and then diluted in assay buffer (final concentrations of 5.7 mM Tris-HCl, 43 mM NaCl, 50 mM LiCl, pH=8). The concentration of DMSO was normalized across the plate. Antagonists were added to the plate using a Tecan D300 Digital Dispenser at nanoliter/picoliter volumes and 2 μL of agonists in assay buffer were added to each well for a final assay volume of 14 μL. Plates were covered and incubated for 1 h at 37° C. and then for 1 h at room temperature. IP-1 standards and HTRF detection reagents were added according to an IP-One—Gq Kit purchased from Cisbio (part number 621PAPEJ) and incubated in the dark for 1 h at room temperature. Assay plates were read on either a Molecular Devices SpectraMax iD5 plate reader or a BMG ClarioStar plate reader. The HTRF ratio was calculated form the raw data and graphed using GraphPad Prism to calculate IC50 values. Data are expressed as average IC50 values and average percent antagonism calculated as a percent of the maximum efficacy response. For these studies, the variability of the data was assessed by determining the standard error of mean (SEM).
The activity ranges are denoted as follows: “+++++” denotes antagonist activity<100 nM; “++++” denotes antagonist activity between 100 and 500 nM; “+++” denotes activity between 500 and 1000 nM; “++” denotes activity between 1000 and 3000 nM; and “+” denotes activity>3000 nM.

Sequence of human MRGPRD (Q8TDS7 whole entry): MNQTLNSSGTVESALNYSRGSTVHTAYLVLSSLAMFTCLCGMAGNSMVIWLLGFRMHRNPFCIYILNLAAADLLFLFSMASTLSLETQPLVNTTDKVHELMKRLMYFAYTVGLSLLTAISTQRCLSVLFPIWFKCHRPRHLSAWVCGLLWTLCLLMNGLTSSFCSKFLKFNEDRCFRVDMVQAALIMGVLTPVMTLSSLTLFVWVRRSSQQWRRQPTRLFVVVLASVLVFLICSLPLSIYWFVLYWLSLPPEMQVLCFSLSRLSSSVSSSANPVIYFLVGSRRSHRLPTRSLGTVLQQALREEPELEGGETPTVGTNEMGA

| SMILES | IC50 [nM] |
| --- | --- |
| Cc1ccc(-n2nnc(C(=O)Nc3ccncc3)c2C(C)C)cc1 [Compound 1-19] | 500 to 1000 |
| N#Cc1ccc(-n2nnc(C(=O)Nc3ccncc3)c2C2CC2)cc1 [Compound 2-1] | > 3000 |
| O=C(Nc1ccncc1)c1nnn(-c2ccc(-c3ccccc3)cc2)c1C1CC1 [Compound 2-3] | 500 to 1000 |
| COc1ccc(-n2nnc(C(=O)Nc3ccncc3)c2C2CC2)cc1 [Compound 2-4, 5-cyclopropyl-1-(4-methoxyphenyl)-N-(pyridin-4-yl)-1H-1,2,3-triazole-4-carboxamide] | 500 to 1000 |
| CC(=O)c1ccc(-n2nnc(C(=O)Nc3ccncc3)c2C2CC2)cc1 [Compound 2-10] | 1000 to 3000 |
| O=C(Nc1ccncc1)c1nnn(-c2ccc(C3CCCC3)cc2)c1C1CC1 [Compound 2-11] | 1000 to 3000 |
| CCc1ccc(-n2nnc(C(=O)Nc3ccncc3)c2C2CC2)cc1 [Compound 3-2] | 1000 to 3000 |
| O=C(Nc1ccncc1)c1nnn(-c2cc3ccccc3o2)c1C1CC1 [Compound 4-1] | > 3000 |
| O=C(Nc1ccncc1)c1nnn(-c2ccccc2C(F)(F)F)c1C1CC1 [Compound 4-3] | 1000 to 3000 |
| O=C(Nc1ccncc1)c1nnn(-c2ccc(O)cc2)c1C1CC1 [Compound 4-5] | 1000 to 3000 |
| O=C(Nc1ccncc1)c1nnn(-c2cc3ccccc3s2)c1C1CC1 [Compound 4-8] | 1000 to 3000 |
| O=C(Nc1ccncc1)c1nnn(C2CCc3ccccc3C2)c1C1CC1 (centres unmarked) [Compound 4-9] | 1000 to 3000 |
| O=C(Nc1ccncc1)c1nnn(-c2cccc(-c3ccccc3)c2)c1C1CC1 [Compound 4-11] | 1000 to 3000 |
| CC(C)(C)c1c(C(=O)Nc2ccncc2)nnn1-c1ccc(-c2ccccc2)cc1 [Compound 4-12] | 1000 to 3000 |
| O=C(Nc1ccncc1)c1nnn(-c2ccc3c(c2)CCC3)c1C1CC1 [Compound 5-1] | > 3000 |
| O=C(Nc1ccncc1)c1nnn(-c2ncc(-c3ccccc3)s2)c1C1CC1 [Compound 5-2] | > 3000 |
| O=C(Nc1ccncc1)c1nnn(-c2ccc3ccccc3c2)c1C1CC1 [Compound 5-3] | 500 to 1000 |
| Cc1ccc(-n2nnc(C(=O)Nc3ccncc3)c2C2CC2)cc1-c1ccccc1 [Compound 5-7] | 1000 to 3000 |
| O=C(Nc1ccncc1)c1nnn(C2CCCCC2)c1C1CC1 [Compound 6-1] | 1000 to 3000 |

| SMILES | IC50 [nM] |
| --- | --- |
| O=C(Nc1ccncc1)c1nnn(-c2cccc3ccccc23)c1C1CC1 [Compound 6-2, 5-cyclopropyl-1-(naphthalen-1-yl)-N-(pyridin-4-yl)-1H-1,2,3-triazole-4-carboxamide] | 100 to 500 |
| O=C(Nc1ccncc1)c1nnn(CC(F)(F)F)c1C1CC1 [Compound 6-3] | 500 to 1000 |
| COCCn1nnc(C(=O)Nc2ccncc2)c1C1CC1 [Compound 6-4] | 1000 to 3000 |
| O=C(Nc1ccncc1)c1nnn(C2CCCC2)c1C1CC1 [Compound 6-5] | 1000 to 3000 |
| Cc1nnc(-c2ccc(-n3nnc(C(=O)Nc4ccncc4)c3C3CC3)cc2)o1 [Compound 7-1] | > 3000 |
| CN(C)C(=O)c1ccccc1-c1ccc(-n2nnc(C(=O)Nc3ccncc3)c2C2CC2)cc1 [Compound 7-2] | > 3000 |
| O=C(Nc1ccncc1)c1nnn(-c2ccc(-c3ncc[nH]3)cc2)c1C1CC1 [Compound 7-3] | > 3000 |
| N#CCc1ccc(-n2nnc(C(=O)Nc3ccncc3)c2C2CC2)cc1 [Compound 7-4] | > 3000 |
| Nc1cc(-c2ccc(-n3nnc(C(=O)Nc4ccncc4)c3C3CC3)cc2)n[nH]1 [Compound 7-5] | > 3000 |
| Cc1ccc(CNC(=O)c2nnn(-c3cccc(-c4ccc(C#N)cc4)c3)c2C2CC2)cn1 [Compound 7-7] | > 3000 |
| CC(=O)c1ccccc1-c1cccc(-n2nnc(C(=O)Nc3ccncc3)c2C2CC2)c1 [Compound 7-8] | > 3000 |
| N#Cc1ccc(-c2cccc(-n3nnc(C(=O)NC4(c5cccnc5)CC4)c3C3CC3)c2)cc1 [Compound 7-9] | > 3000 |
| O=C(NC1(c2cccnc2)CC1)c1nnn(-c2cccc(-c3cnn(C4CCC4)c3)c2)c1C1CC1 [Compound 7-10] | > 3000 |
| Cc1nn(-c2ccccc2)c(C)c1-c1ccc(-n2nnc(C(=O)Nc3ccncc3)c2C2CC2)cc1 [Compound 7-11] | < 100 |
| CCn1nc(C)c(-c2ccc(-n3nnc(C(=O)Nc4ccncc4)c3C3CC3)cc2)c1C [Compound 7-14] | < 100 |
| Cc1cc(C#N)ccc1-c1ccc(-n2nnc(C(=O)Nc3ccncc3)c2C2CC2)cc1 [Compound 7-15] | < 100 |
| Cc1nn(C)c(F)c1-c1ccc(-n2nnc(C(=O)Nc3ccncc3)c2C2CC2)cc1 [Compound 7-16] | < 100 |
| Cc1nn(CC(F)(F)F)c(C)c1-c1ccc(-n2nnc(C(=O)Nc3ccncc3)c2C2CC2)cc1 [Compound 7-17] | < 100 |
| Cc1nn2ccccc2c1-c1ccc(-n2nnc(C(=O)Nc3ccncc3)c2C2CC2)cc1 [Compound 7-18] | < 100 |

Further lines, results first:

| IC50 [nM] | SMILES |
| --- | --- |
| 100 to 500 | Cc1ccc(-n2nnc(C(=O)Nc3ccnc(C)c3)c2C2CC2)cc1 [Compound 1-4, 5-cyclopropyl-N-(2-methylpyridin-4-yl)-1-(p-tolyl)-1H-1,2,3-triazole-4-carboxamide] |
| 500 to 1000 | Cc1ccc(-n2nnc(C(=O)Nc3cc(F)nc(F)c3)c2C2CC2)cc1 [Compound 1-5] |
| 500 to 1000 | Cc1ccc(-n2nnc(C(=O)Nc3cc(C)nc(C)c3)c2C2CC2)cc1 [Compound 1-6] |
| 500 to 1000 | Cc1ccc(-n2nnc(C(=O)Nc3ccnc(F)c3)c2C2CC2)cc1 [Compound 1-7] |
| 1000 to 3000 | Cc1ccc(-n2nnc(C(=O)Nc3ccncc3F)c2C2CC2)cc1 [Compound 1-9] |
| 500 to 1000 | Cc1ccc(-n2nnc(C(=O)Nc3ccncc3)c2C2CC2)c(F)c1 [Compound 2-2] |
| 1000 to 3000 | Cc1ccc(-n2nnc(C(=O)Nc3ccncc3)c2C2CC2)cc1C [Compound 2-5] |
| 1000 to 3000 | COc1cc(-n2nnc(C(=O)Nc3ccncc3)c2C2CC2)ccc1C [Compound 2-6] |
| 1000 to 3000 | Cc1ccc(-n2nnc(C(=O)Nc3ccncc3)c2C2CC2)c(Cl)c1 [Compound 2-7] |
| 1000 to 3000 | Cc1ccc(-n2nnc(C(=O)Nc3ccncc3)c2C2CC2)c(C)c1 [Compound 2-8] |
| 1000 to 3000 | CC(=O)c1cccc(-n2nnc(C(=O)Nc3ccncc3)c2C2CC2)c1 [Compound 2-9] |
| > 3000 | Cc1ccc(-n2nnc(C(=O)Nc3ccncc3)c2C2CC2)cc1F [Compound 2-13] |
| > 3000 | Cc1cccc(-n2nnc(C(=O)Nc3ccncc3)c2C2CC2)c1 [Compound 2-14] |
| 500 to 1000 | CCc1cccc(-n2nnc(C(=O)Nc3ccncc3)c2C2CC2)c1 [Compound 3-1, 5-cyclopropyl-1-(3-ethylphenyl)-N-(pyridin-4-yl)-1H-1,2,3-triazole-4-carboxamide] |
| 1000 to 3000 | CCc1ccccc1-n1nnc(C(=O)Nc2ccncc2)c1C1CC1 [Compound 3-3] |
| 1000 to 3000 | COc1cccc(-n2nnc(C(=O)Nc3ccncc3)c2C2CC2)c1 [Compound 3-4] |
| 500 to 1000 | Cc1ccc(-n2nnc(C(=O)Nc3ccncc3)c2C2CCC2)cc1 [Compound 3-5] |
| 1000 to 3000 | Cc1ccc(-n2nnc(C(=O)Nc3ccncc3)c2C2CCCC2)cc1 [Compound 3-6] |
| 100 to 500 | Cc1ccc(-n2nnc(C(=O)Nc3ccnc(C)c3)c2C2CC2)c(Cl)c1 [Compound 4-2, 1-(2-chloro-4-methylphenyl)-5-cyclopropyl-N-(2-methylpyridin-4-yl)-1H-1,2,3-triazole-4-carboxamide] |
| 1000 to 3000 | Cc1ccc(-n2nnc(C(=O)Nc3ccncc3)c2C2CC2)cc1O [Compound 4-4] |
| 1000 to 3000 | Cc1ccc(-n2nnc(C(=O)Nc3ccncc3)c2C2CC2)c(C(F)(F)F)c1 [Compound 4-6] |
| 1000 to 3000 | O=C(Nc1ccncc1)c1nnn(-c2cccc(O)c2)c1C1CC1 [Compound 4-7] |
| 1000 to 3000 | O=C(Nc1ccncc1)c1nnn(-c2csc3ccccc23)c1C1CC1 [Compound 4-10] |
| 500 to 1000 | O=C(Nc1ccncc1)c1nnn(-c2ccc(-c3ccccc3)cc2Cl)c1C1CC1 [Compound 4-13] |
| 500 to 1000 | CCc1cc(-n2nnc(C(=O)Nc3ccncc3)c2C2CC2)ccc1C [Compound 5-4, 5-cyclopropyl-1-(3-ethyl-4-methylphenyl)-N-(pyridin-4-yl)-1H-1,2,3-triazole-4-carboxamide] |
| 500 to 1000 | COc1cc(C)ccc1-n1nnc(C(=O)Nc2ccncc2)c1C1CC1 [Compound 5-5] |
| 1000 to 3000 | CCc1cc(C)ccc1-n1nnc(C(=O)Nc2ccncc2)c1C1CC1 [Compound 5-6] |
| < 100 | Cc1cc(NC(=O)c2nnn(-c3ccc(-c4c(C)nn(C)c4C)cc3)c2C2CC2)ccn1 [Compound 7-12, 5-cyclopropyl-N-(2-methylpyridin-4-yl)-1-(4-(1,3,5-trimethyl-1H-pyrazol-4-yl)phenyl)-1H-1,2,3-triazole-4-carboxamide] |
| < 100 | Cc1cc(NC(=O)c2nnn(-c3ccc(-c4c(C)nn(C)c4F)cc3)c2C2CC2)ccn1 [Compound 7-13] |
| < 100 | Cc1cc(NC(=O)c2nnn(-c3ccc(-c4cnn(Cc5ccccc5)c4)cc3)c2C2CC2)ccn1 [Compound 7-19] |
